Measured values from US11370774B2, “Substituted benzofuran, benzopyrrole, benzothiophene, and structurally related complement inhibitors” (BioCryst Pharmaceuticals, Inc., priority 2018, dated 2022).

target: Factor D (Homo sapiens (Human), UniProt P00746); assay: Factor D esterolytic assay (Z-Lys-SBzl substrate, DTNB, 405 nm); type: biochemical; conditions: Z-Lys-SBzl 1.29 mM, pH 7.5, 10% DMSO, tested a minimum of three times, read-out: Measured Ki (IC50) Value for Compounds: IC50
Method in brief: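 Human Factor D ([…]) with 1.29 mM Z-Lys-SBzl in 100 mM HEPES, 500 mM NaCl, pH 7.5, 10% DMSO; substrate added immediately or after room-temperature preincubation. Released thiol reacted with DTNB, rate followed at 405 nm for 600 sec, 690 nm background subtracted. IC50 from percent inhibition versus uninhibited rate, n≥3.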

Factor D, sequence (P00746 26-253): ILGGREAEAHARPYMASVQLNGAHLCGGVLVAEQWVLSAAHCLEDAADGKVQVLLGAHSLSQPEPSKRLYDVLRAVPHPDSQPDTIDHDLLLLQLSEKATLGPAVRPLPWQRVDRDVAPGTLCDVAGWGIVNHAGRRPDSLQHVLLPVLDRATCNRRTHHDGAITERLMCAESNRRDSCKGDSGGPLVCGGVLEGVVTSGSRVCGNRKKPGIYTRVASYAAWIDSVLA

Row | IC50 | Compound
1 | < 1000 nM | CC(C)(O)c1cc2cc(COc3ccccc3CC(=O)O)cc(-c3cccc(CN)c3)c2o1 [Compound 104e, 2-(2-((7-(3-(aminomethyl)phenyl)-2-(2-hydroxypropan-2-yl)benzofuran-5-yl)methoxy)phenyl)acetic acid]
2 | < 1000 nM | NCc1cccc(-c2cc(COc3ccccc3CC(=O)O)nc3[nH]ccc23)c1 [Compound 52a, 2-(2-((4-(3-(aminomethyl)phenyl)-1H-pyrrolo[2,3-b]pyridin-6-yl)methoxy)phenyl)acetic acid]
3 | < 1000 nM | NCc1cccc(-c2cc(COc3ccccc3CC(=O)O)cn3ccnc23)c1 [Compound 102g, 2-(2-((8-(3-(aminomethyl)phenyl)imidazo[1,2-a]pyridin-6-yl)methoxy)phenyl)acetic acid]
4 | 1000 to 10000 nM | NCc1cccc(-c2cc(COc3cccnc3CC(=O)O)cc3ccoc23)c1 [Compound 230e, 2-(3-((7-(3-(aminomethyl)phenyl)benzofuran-5-yl)methoxy)pyridin-2-yl)acetic acid]
5 | < 1000 nM | Cc1ccc(CC(=O)O)c(OCc2cc(-c3cccc(CN)c3)c3occ(C(F)(F)F)c3c2)c1 [Compound 345b, 2-(2-((7-(3-(aminomethyl)phenyl)-3-(trifluoromethyl)benzofuran-5-yl)methoxy)-4-methylphenyl)acetic acid]
6 | < 1000 nM | COCc1cc2cc(COc3cc(C#N)ccc3CC(=O)O)cc(-c3cccc(CN)c3)c2o1 [Compound 458b, 2-(2-((7-(3-(aminomethyl)phenyl)-2-(methoxymethyl)benzofuran-5-yl)methoxy)-4-cyanophenyl)acetic acid]
7 | < 1000 nM | Cc1cccc(CC(=O)O)c1OCc1cc(-c2cccc(CN)c2)c2occc2c1 [Compound 274g, 2-(2-((7-(3-(aminomethyl)phenyl)benzofuran-5-yl)methoxy)-3-methylphenyl)acetic acid]
8 | < 1000 nM | COc1cccc(CC(=O)O)c1OCc1cc(-c2cccc(CN)c2)c2occc2c1 [Compound 476f, 2-(2-((7-(3-(aminomethyl)phenyl)benzofuran-5-yl)methoxy)-3-methoxyphenyl)acetic acid]
9 | < 1000 nM | NCc1cc(-c2cc(COc3ccccc3CC(=O)O)cc3ccoc23)ccc1F [Compound 60c, 2-(2-((7-(3-(aminomethyl)-4-fluorophenyl)benzofuran-5-yl)methoxy)phenyl)acetic acid]
10 | < 1000 nM | NCc1cccc(-c2cc(COc3ccccc3CC(=O)O)cc3cc(COc4ccccc4)oc23)c1 [Compound 457c, 2-(2-((7-(3-(aminomethyl)phenyl)-2-(phenoxymethyl)benzofuran-5-yl)methoxy)phenyl)acetic acid]
11 | < 1000 nM | NCc1cccc(-c2nc(C(=O)Nc3ccccc3CC(=O)O)nc3[nH]ccc23)c1 [Compound 3i, 2-(2-(4-(3-(aminomethyl)phenyl)-7H-pyrrolo[2,3-d]pyrimidine-2-carboxamido)phenyl)acetic acid]
12 | < 1000 nM | NCc1cccc(-c2cc(COc3ccncc3CC(=O)O)cc3ccoc23)c1 [Compound 163d, 2-(4-((7-(3-(aminomethyl)phenyl)benzofuran-5-yl)methoxy)pyridin-3-yl)acetic acid]
13 | < 1000 nM | NCc1cc(F)cc(-c2nc(C(=O)Nc3ccccc3CC(=O)O)c3cccn3n2)c1 [Compound 21d, 2-(2-(2-(3-(aminomethyl)-5-fluorophenyl)pyrrolo[2,1-f][1,2,4]triazine-4-carboxamido)phenyl)acetic acid]
14 | < 1000 nM | COc1ccc(C(SC)C(=O)O)c(OCc2cc(-c3cccc(CN)c3)c3occc3c2)c1 (centres unmarked) [Compound 321f, 2-(2-((7-(3-(aminomethyl)phenyl)benzofuran-5-yl)methoxy)-4-methoxyphenyl)-2-(methylthio)acetic acid]
15 | > 10000 nM | NCc1cccc(-c2cc(NC(=O)N3CCCC3CC(=O)O)cc3ccoc23)c1 (centres unmarked) [Compound 407d, 2-(1-((7-(3-(aminomethyl)phenyl)benzofuran-5-yl)carbamoyl)pyrrolidin-2-yl)acetic acid]
16 | < 1000 nM | CC(C)c1cc2cc(COc3ccccc3CC(=O)O)cc(-c3cccc(CN)c3)c2o1 [Compound 108f, 2-(2-((7-(3-(aminomethyl)phenyl)-2-isopropylbenzofuran-5-yl)methoxy)phenyl)acetic acid]
17 | < 1000 nM | NCc1cccc(-c2cc(C(=O)Nc3ccccc3CC(=O)O)c(F)c3ccoc23)c1F [Compound 246b, 2-(2-(7-(3-(aminomethyl)-2-fluorophenyl)-4-fluorobenzofuran-5-carboxamido)phenyl)acetic acid]

Row | IC50 | Compound
18 | < 1000 nM | N[C@H](CO)c1cccc(-c2cc(COc3ccccc3CC(=O)O)cc3ccoc23)c1F [Compound 67c, (S)-2-(2-((7-(3-(1-amino-2-hydroxyethyl)-2-fluorophenyl)benzofuran-5-yl)methoxy)phenyl)acetic acid]
19 | < 1000 nM | NCc1cccc(-c2cc(CC(=O)N3[C@@H]4C[C@@H]4C[C@H]3C(=O)NCc3cccc(Cl)c3F)cc3ccoc23)c1 [Compound 273g, (1R,3S,5R)-2-(2-(7-(3-(aminomethyl)phenyl)benzofuran-5-yl)acetyl)-N-(3-chloro-2-fluorobenzyl)-2-azabicyclo[3.1.0]hexane-3-carboxamide]
20 | < 1000 nM | Cn1ccc2c(-c3cccc(CN)c3F)cc(COc3ccccc3CC(=O)O)cc21 [Compound 97b, 2-(2-((4-(3-(aminomethyl)-2-fluorophenyl)-1-methyl-1H-indol-6-yl)methoxy)phenyl)acetic acid]
21 | < 1000 nM | CCCc1cc2cc(COc3ccccc3CC(=O)O)cc(-c3cccc(CN)c3)c2o1 [Compound 187f, 2-(2-((7-(3-(aminomethyl)phenyl)-2-propylbenzofuran-5-yl)methoxy)phenyl)acetic acid]
22 | < 1000 nM | Cc1ccc(CC(=O)O)c(OCc2cc(-c3cccc(CN)c3)c3occc3c2F)c1 [Compound 347b, 2-(2-((7-(3-(aminomethyl)phenyl)-4-fluorobenzofuran-5-yl)methoxy)-4-methylphenyl)acetic acid]
23 | < 1000 nM | NCc1cccc(-c2cc(COc3ccccc3CC(=O)O)cc3cc(CN4CCOCC4)oc23)c1 [Compound 139c, 2-(2-((7-(3-(aminomethyl)phenyl)-2-(morpholinomethyl)benzofuran-5-yl)methoxy)phenyl)acetic acid]
24 | < 1000 nM | Cc1ccc(S(=O)(=O)n2ccc3c(-c4cccc(CN)c4F)cc(COc4ccccc4CC(=O)O)cc32)cc1 [Compound 57c, 2-(2-((4-(3-(aminomethyl)-2-fluorophenyl)-1-tosyl-1H-indol-6-yl)methoxy)phenyl)acetic acid]
25 | < 1000 nM | Cc1ccc(CC(=O)O)c(OCc2cc(-c3ccnc(CN)c3F)c3occ(C(F)(F)F)c3c2)c1 [Compound 343e, 2-(2-((7-(2-(aminomethyl)-3-fluoropyridin-4-yl)-3-(trifluoromethyl)benzofuran-5-yl)methoxy)-4-methylphenyl)acetic acid]
26 | < 1000 nM | C[C@@H](N)c1cccc(-c2nc(C(=O)Nc3ccccc3CC(=O)O)c3cccn3n2)c1 [Compound 4e, (R)-2-(2-(2-(3-(1-aminoethyl)phenyl)pyrrolo[2,1-f][1,2,4]triazine-4-carboxamido)phenyl)acetic acid]
27 | < 1000 nM | NCc1cccc(-c2cc(COc3ccc(F)cc3CC(=O)O)c(F)c3ccoc23)c1F [Compound 387b, 2-(2-((7-(3-(aminomethyl)-2-fluorophenyl)-4-fluorobenzofuran-5-yl)methoxy)-5-fluorophenyl)acetic acid]
28 | < 1000 nM | NCc1nccc(-c2cc(COc3cc(F)ccc3CC(=O)O)c(F)c3ccoc23)c1F [Compound 509d, 2-(2-((7-(2-(aminomethyl)-3-fluoropyridin-4-yl)-4-fluorobenzofuran-5-yl)methoxy)-4-fluorophenyl)acetic acid]
29 | < 1000 nM | NCc1nccc(-c2cc(COc3ccccc3CC(=O)O)cc3ccsc23)c1F [Compound 431c, 2-(2-((7-(2-(aminomethyl)-3-fluoropyridin-4-yl)benzo[b]thiophen-5-yl)methoxy)phenyl)acetic acid]
30 | < 1000 nM | COCc1cc2cc(COc3cc(C(N)=O)ccc3CC(=O)O)cc(-c3cccc(CN)c3F)c2o1 [Compound 439c, 2-(2-((7-(3-(aminomethyl)-2-fluorophenyl)-2-(methoxymethyl)benzofuran-5-yl)methoxy)-4-carbamoylphenyl)acetic acid]
31 | < 1000 nM | COc1ccc(OCc2cc(-c3cccc(CN)c3)c3ccn(C(C)C)c3c2)c(CC(=O)O)c1 [Compound 493b, 2-(2-((4-(3-(aminomethyl)phenyl)-1-isopropyl-1H-indol-6-yl)methoxy)-5-methoxyphenyl)acetic acid]
32 | < 1000 nM | NCc1nccc(-c2cc(COc3ccccc3CC(=O)O)cc3cc(C(F)(F)F)oc23)c1F [Compound 240d, 2-(2-((7-(2-(aminomethyl)-3-fluoropyridin-4-yl)-2-(trifluoromethyl)benzofuran-5-yl)methoxy)phenyl)acetic acid]
33 | < 1000 nM | COCc1cc2cc(COc3ccc(F)cc3CC(=O)O)cc(-c3cccc(CN)c3)c2o1 [Compound 462c, 2-(2-((7-(3-(aminomethyl)phenyl)-2-(methoxymethyl)benzofuran-5-yl)methoxy)-5-fluorophenyl)acetic acid]
34 | < 1000 nM | NCc1cccc(-c2cc(COc3ccccc3CC(=O)O)cc3c2ccn3CC2CC2)c1 [Compound 148e, 2-(2-((4-(3-(aminomethyl)phenyl)-1-(cyclopropylmethyl)-1H-indol-6-yl)methoxy)phenyl)acetic acid]

Row | Compound | IC50
35 | NC(=O)c1ccc(CC(=O)O)c(OCc2cc(-c3cccc(C(N)CF)c3)c3occc3c2)c1 (single isomer, unassigned; (+)) [Compound 436c, (+)-2-(2-((7-(3-(1-amino-2-fluoroethyl)phenyl)benzofuran-5-yl)methoxy)-4-carbamoylphenyl)acetic acid] | < 1000 nM
